In patent US20250257054A1, “SALT FORMS OF A 4H-PYRAN-4-ONE STRUCTURED CYP11 A1 INHIBITOR” (ORION CORPORATION, priority 2021, published 2025):
Counter-ions that a name gives are not always drawn.

What was measured:
Type in all cases: physicochemical
[1] = Short-term physical stability of salts at 40° C./75% RH for 2 weeks (XRPD); conditions: determined by XRPD
Experimental: (§1) XRPD measurements were performed with the X-ray powder diffractometer Bruker D8 Advance at room temperature, using a copper filled X-ray tube (40 kV×40 mA) as the X-ray source, CuKα (λ=1.5418 Å), a 0.6 mm divergence slit, 2.5° Soller slits on both the primary and secondary beams and the 1-dimensional LynxEye detector (with aperture angle of 2.91593°). Data collection was done in the range of 3.8-33° 2θ with 0.02° increments, at a scan speed of 0.3°/s.
Short-term physical stability of various salts was studied by exposure at 40° C./75% RH for 2 weeks followed by measurement by XRPD.

[2] = Slurry stability of crystalline forms of p-toluenesulfonic acid salt in different water activity conditions (XRPD); conditions: for Resulting form 5° C. / Resulting form 25° C. / Resulting form 40° C.: slurry of Form 3 stirred 2-3 weeks; for Water activity in which the crystalline form is favoured: slurry experiments, values stated as 'about'
Experimental: as §1
Stability of the crystalline forms of p-toluenesulfonic acid salt in different water activity conditions was studied in slurry experiments where crystalline form 3 was stirred for 2-3 weeks at 5° C., 25° C. and 40° C. in mixtures of ethanol:water, acetonitrile (ACN):water, methanol: water and methanol alone. 0.5 ml of solvent was added to 25 mg of each sample. The resulting crystalline form was determined by XRPD.

[3] = Crystalline transformation of form 2 on drying; conditions: higher drying temperatures (than about 20-60° C., under reduced pressure)
Experimental: In a preferred method, crystalline form 2 is prepared in high polymorphic purity and in consistent manner by first dissolving compound (I) in a mixture of acetonitrile and water, where the amount of water is from about 5% to about 15%, preferably from 6% to 12%, per volume of the mixture. The amount of compound (I) is suitably from about 5 g to about 15 g, preferably from about 9 g to 13 g, for example, about 11 g, per 100 ml of the solvent. If desired, activated carbon, celite and/or triamine metal scavenger may also be added. The mixture may be heated, for example, to a temperature of about 50-80° C., more specifically to about 70-80° C. The mixture can be thereafter filtered. To the filtrate is then added p-toluenesulfonic acid monohydrate, for example, in about equivalent molar amount, under heating at a temperature of about 50-80° C., more specifically at about 70° C. The mixture may then be cooled to about 60° C. and seeded, if desired. The mixture can then be stirred in this temperature for about 1 h, followed by cooling, for example to about 0-20° C., more specifically to about 5° C., to precipitate the product. The crystalline form 2 can be washed, for example, with water, and dried at about 20-60° C., preferably at about 25-35° C., for example at about 30° C., under reduced pressure. […]

[4] = ACN:water 92.1:7.9, water activity 0.81
[5] = ACN:water 96.3:3.7, water activity 0.58
[6] = EtOH:water 30:70, water activity >0.9
[7] = EtOH:water 83:17, water activity 0.64
[8] = EtOH:water 92.8:7.2, water activity 0.40
[9] = EtOH:water 96.7:3.3, water activity 0.22
[10] = MeOH:water 36:64, water activity 0.83
[11] = MeOH:water 77:23, water activity 0.52
[12] = MeOH:water 90:10, water activity 0.30
[13] = MeOH:water 95.3:4.7, water activity 0.16

## CS(=O)(=O)N1CCC(COc2coc(CN3Cc4ccc(C(F)(F)F)cc4C3)cc2=O)CC1 [Methanesulfonic acid salt (form 1), 5-((1-(methyl-sulfonyl)piperidin-4-yl)methoxy)-2-((5-(trifluoromethyl)isoindolin-2-yl)methyl)-4H-pyran-4-one]
[1]
  Form after 2 weeks: No change

## CS(=O)(=O)N1CCC(COc2coc(CN3Cc4ccc(C(F)(F)F)cc4C3)cc2=O)CC1 [Form 3, 5-((1-(methylsulfonyl)-piperidin-4-yl)methoxy)-2-((5-(trifluoromethyl)isoindolin-2-yl)methyl)-4H-pyran-4-one]
[2]; slurry in solvent:water mixtures and methanol, 5-40° C., 2-3 weeks
  Stability of the crystalline form in the slurry conditions: unstable
[2]; [4]
  Resulting form 5° C.: Form 2
  Resulting form 25° C.: Form 2
  Resulting form 40° C.: Form 2
[2]; [5]
  Resulting form 5° C.: Form 2
  Resulting form 25° C.: Form 2
  Resulting form 40° C.: Form 2
[2]; [6]
  Resulting form 5° C.: Form 2
  Resulting form 25° C.: Form 2
  Resulting form 40° C.: Form 2
[2]; [7]
  Resulting form 5° C.: Form 2
  Resulting form 25° C.: Form 2
  Resulting form 40° C.: Form 2
[2]; [8]
  Resulting form 5° C.: Form 1
  Resulting form 25° C.: Form 1
  Resulting form 40° C.: Form 1
[2]; [9]
  Resulting form 5° C.: Form 1
  Resulting form 25° C.: Form 1
  Resulting form 40° C.: Form 1
[2]; MeOH alone
  Resulting form 5° C.: Form 1
  Resulting form 25° C.: Form 1
  Resulting form 40° C.: Form 1
[2]; [10]
  Resulting form 5° C.: Form 2
  Resulting form 25° C.: Form 2
  Resulting form 40° C.: Form 2
[2]; [11]
  Resulting form 5° C.: Form 2
  Resulting form 25° C.: Form 2
  Resulting form 40° C.: Form 1
[2]; [12]
  Resulting form 5° C.: Form 1
  Resulting form 25° C.: Form 1
  Resulting form 40° C.: Form 1
[2]; [13]
  Resulting form 5° C.: Form 1
  Resulting form 25° C.: Form 1
  Resulting form 40° C.: Form 1

## CS(=O)(=O)N1CCC(COc2coc(CN3Cc4ccc(C(F)(F)F)cc4C3)cc2=O)CC1 [Oxalic acid salt (form 4), 5-((1-(methyl-sulfonyl)piperidin-4-yl)methoxy)-2-((5-(trifluoromethyl)isoindolin-2-yl)methyl)-4H-pyran-4-one]
[1]
  Form after 2 weeks: No change

## CS(=O)(=O)N1CCC(COc2coc(CN3Cc4ccc(C(F)(F)F)cc4C3)cc2=O)CC1 [Hydrochloric acid salt (form 1), 5-((1-(methyl-sulfonyl)piperidin-4-yl)methoxy)-2-((5-(trifluoromethyl)isoindolin-2-yl)methyl)-4H-pyran-4-one]
[1]
  Form after 2 weeks: No change

## CS(=O)(=O)N1CCC(COc2coc(CN3Cc4ccc(C(F)(F)F)cc4C3)cc2=O)CC1 [Oxalic acid salt (form 2), 5-((1-(methyl-sulfonyl)piperidin-4-yl)methoxy)-2-((5-(trifluoromethyl)isoindolin-2-yl)methyl)-4H-pyran-4-one]
[1]
  Form after 2 weeks: No change

## CS(=O)(=O)N1CCC(COc2coc(CN3Cc4ccc(C(F)(F)F)cc4C3)cc2=O)CC1 [2-Naphthalenesulphonic acid salt (form 1)] [5-((1-(methyl-sulfonyl)piperidin-4-yl)methoxy)-2-((5-(trifluoromethyl)isoindolin-2-yl)methyl)-4H-pyran-4-one]
[1]
  Form after 2 weeks: No change

## CS(=O)(=O)N1CCC(COc2coc(CN3Cc4ccc(C(F)(F)F)cc4C3)cc2=O)CC1 [Oxalic acid salt (form 3), 5-((1-(methyl-sulfonyl)piperidin-4-yl)methoxy)-2-((5-(trifluoromethyl)isoindolin-2-yl)methyl)-4H-pyran-4-one]
[1]
  Form after 2 weeks: Form 3 + extra peaks

## CS(=O)(=O)N1CCC(COc2coc(CN3Cc4ccc(C(F)(F)F)cc4C3)cc2=O)CC1 [Oxalic acid salt (form 1), 5-((1-(methyl-sulfonyl)piperidin-4-yl)methoxy)-2-((5-(trifluoromethyl)isoindolin-2-yl)methyl)-4H-pyran-4-one]
[1]
  Form after 2 weeks: Form 1 + extra peaks

## CS(=O)(=O)N1CCC(COc2coc(CN3Cc4ccc(C(F)(F)F)cc4C3)cc2=O)CC1 [Benzenesulfonic acid salt (form 1), 5-((1-(methyl-sulfonyl)piperidin-4-yl)methoxy)-2-((5-(trifluoromethyl)isoindolin-2-yl)methyl)-4H-pyran-4-one]
[1]
  Form after 2 weeks: No change

## CS(=O)(=O)N1CCC(COc2coc(CN3Cc4ccc(C(F)(F)F)cc4C3)cc2=O)CC1 [p-Toluenesulfonic acid salt (form 1), 5-((1-(methylsulfonyl)-piperidin-4-yl)methoxy)-2-((5-(trifluoromethyl)isoindolin-2-yl)methyl)-4H-pyran-4-one]
[2]; 5-40° C., 2-3 weeks, listed as crystalline form 1 of p-toluenesulfonic acid salt
  Water activity in which the crystalline form is favoured: up to 0.4
[1]
  Form after 2 weeks: No change

## CS(=O)(=O)N1CCC(COc2coc(CN3Cc4ccc(C(F)(F)F)cc4C3)cc2=O)CC1 [Maleic acid salt (form 1), 5-((1-(methyl-sulfonyl)piperidin-4-yl)methoxy)-2-((5-(trifluoromethyl)isoindolin-2-yl)methyl)-4H-pyran-4-one]
[1]
  Form after 2 weeks: Form 1 + extra peaks

## CS(=O)(=O)N1CCC(COc2coc(CN3Cc4ccc(C(F)(F)F)cc4C3)cc2=O)CC1 [Hydrobromic acid salt (form 1), 5-((1-(methyl-sulfonyl)piperidin-4-yl)methoxy)-2-((5-(trifluoromethyl)isoindolin-2-yl)methyl)-4H-pyran-4-one]
[1]
  Form after 2 weeks: No change

## CS(=O)(=O)N1CCC(COc2coc(CN3Cc4ccc(C(F)(F)F)cc4C3)cc2=O)CC1 [p-Toluenesulfonic acid salt (form 2), 5-((1-(methylsulfonyl)-piperidin-4-yl)methoxy)-2-((5-(trifluoromethyl)isoindolin-2-yl)methyl)-4H-pyran-4-one]
[2]; 5-40° C., 2-3 weeks, listed as Crystalline form 2 of p-toluenesulfonic acid salt
  Water activity in which the crystalline form is favoured: higher than 0.5
[3]
  Crystalline transformation on drying: some transformation of crystalline form 2 into crystalline form 1
[1]
  Form after 2 weeks: No change
